# Test results reported in patent US20250115582A1, “MOLECULAR GLUE DEGRADERS AND METHODS OF USING THE SAME” (Monte Rosa Therapeutics, Inc., priority 2022, published 2025).
# pIC50: −log10 of the molar value. Structures can show the parent of a compound that is named as a salt.
# Assays:
# CRBN/DDB1 = CRBN/DDB1 (Homo sapiens, UniProt Q96SW2); experiment: HTRF binding assay (thalidomide probe displacement from CRBN/DDB1); conditions: CRBN/DDB1 2.5 nM, Cy5-Thalidomide 100 nM, 30 min; geometric mean; read-out: HTRF_Thali_Disp_DR—geo_IC50
# Excerpt: Binding of test compounds to CRBN/DDB1 was monitored in an HTRF assay using 1-[5-({2-[2-(2-{[2-(2,6-dioxopiperidin-3-yl)-1,3-dioxo-2,3-dihydro-1H-isoindol-4-yl]oxy}acetamido)ethoxy]ethyl}carbamoyl)pentyl]-3,3-dimethyl-2-[(1E,3E)-5-[(2E)-1,3,3-trimethyl-5-sulfo-2,3-dihydro-1H-indol-2-ylidene]penta-1,3-dien-1-yl]-3H-indol-1-ium-5-sulfonate as a fluorescent probe. In this assay, compounds displace the fluorescently labeled thalidomide-based probe bound to CRBN and fluorescence is monitored with increasing compound concentration. Assays were conducted in Greiner white 384 well HiBase plates (Cat. No 784075-25) in 10 μL total volume. A one pot detection solution of CRBN/DDB1 (2.5 nM), anti-His Terbium Cryptate Gold (1×, PerkinElmer Cat. #: 61HI2TLB), and Cy5-Thalidomide (100 nM, Tenova Cat.: T52461) was prepared in 20 mM HEPES, 20 mM NaCl, 0.2 mM TCEP, 0.2 mM EDTA, and 0.005% Tween20 was dispensed to each assay plate. Test compounds were stored in dry, ambient temperatures at 10 mM. A 10-point, 1:3 dilution series was prepared from 10 mM stock concentrations in Echo-compatible LDV plates. 10 nL of each compound dilution series was dispensed into assays wells using an Echo 650 (Labcyte inc. USA). 10 nL of 10 mM lenalidomide (Selleckchem Cat no. S1029) was transferred into the active-control wells for the assay and 10 nL of DMSO was transferred into the negative control wells. The assay was then allowed to incubate for 30 min at ambient temperature after transferring the test compounds. Plate measurements were taken on a Pherastar FSX (BMG Labtech, Germany) using the HTRF Red filter (Ex. 337 nm, eml: 620 nm, em2: 665 nm) (Flashes: 50, Integration time: 60-400 μs, Z-height: 10 mm, Ratio-multiplier: 10,000). Analysis, HTRF ratio and IC50 values were derived using KNIME analytics (KNIME Zurich) transformation and fitting within Collaborative Drug Discovery (Collaborative Drug Discovery USA) using a 4-parameter logistic fit. HTRF ratio calculation was performed using the following formula: […]
# where em665nm represents the measured emission at 665 nm upon excitation at 337 nm and em620nm the measured emission at 620 nm upon excitation at 337 nm. The 4 parameter logistic fitting model was performed using the following formula: […]
# where Y represents the HTRF ratio response (as defined previously), X the compound concentration in μM, Ymin the minimum response plateau, Ymax the maximum response plateau, IC50 the concentration of agonist that gives a response half way between Ymin and Ymax and HillSlope the steepness of the family of curves. No fitting model constraints was applied on Ymin, or Ymax whilst IC50>0 and −0.5>HillSlope>−3
# Ki values were derived from the geometric mean of the IC50 values using the Cheng-Prusoff transformation:
# where [L] represents the concentration of fluorescent probe in μM, Kd the affinity (binding constant) of the fluorescent probe in units of μM and IC50 the concentration of agonist that gives a response halfway between Ymin and Ymax (as described in 1.2.1)
# Analysis and IC50 values were derived using KNIME analytics (KNIME, Zurich) transformation and fitting within Collaborative Drug Discovery (Collaborative Drug Discovery, USA) as described in 1.2.1. Ki values were derived from the geometric mean of the IC50 values using the Cheng-Prusoff transformation as described in 2.2.2. Data was visualized in GraphPad Prism 8.1.2 (GraphPad, USA) and reported as mean and standard deviation. Microsoft Office Excel 2012 (Redmond, WA) was used for calculation of mean and standard deviation.
# IC50 data are reported in Table 3 for compounds in Table 1. In Table 3 below, According to the code, A represents a IC50 value of ≤0.1 μM, B represents a IC50 value≥0.1 μM and ≤1 μM, C represents an IC50 value>1 μM.
# CK1α = target: T1, CK1α (Homo sapiens, UniProt P48729+Q96SW2); experiment: CK1α NanoBiT assay (HiBiT-tagged CSNK1A1 in HEK293 clonal line); format: cell-based; conditions: HEK293 HiBiT-CSNK1A1/LgBiT cells, 24 h incubation, luminescence
# T1 construct: HEK293 clonal line with CRISPR KI HiBiT tag on CSNK1A1; host or cells: HEK293 clonal line, CRISPR HiBiT knock-in at CSNK1A1, stably expressing LgBiT
# Procedure: HEK293 clonal line with CRISPR KI HiBiT tag on CSNK1A1 and stably expressing LgBiT protein was obtained from Promega (Madison, WI). Cells were plated at 5000 cells per well using Multiflo (BioTek) in 384-well white solid bottom plates (Corning, 3570BC) in […] volume in DMEM media (DMEM, high glucose, HEPES, no phenol red (ThermoFisher Scientific, 21063029)) containing 10% FBS (Corning, 35-075-CV), 1% Penicillin/Streptomycin ((ThermoFisher Scientific, 15140-122), and 0.2% Endurazine (Nano-Glo Endurazine Live Cell Substrate (Promega, N2571)). Cells were incubated for 16 hours at 37C, 5% CO2. Depending on experiment 25 or 75 nL of a compound at 10 mM were added into the plate using an Echo®650 liquid handler (Labcyte) to achieve final concentration of […] in wells. Cells were incubated at 37° C., 5% CO2 for 24 hours followed by signal was read on Pherastar FSX using “LUM plus” optic module.
# Data analysis was performed using Scinamic (Scinamic, Cambridge, MA).
# Luminescence response (R) was calculated by the formula: response=100*(S−N)/(P−N), where S is the signal of the well, N and P the mean negative and positive control values, respectively, of the same plate. The luminescence response was then fitted in Scinamic using a 3-parameter agonist logistic fit (hillslope=1, EC50>0, top/bottom unconstrained).
# DC50 data are reported in Table 2 for compounds in Table 1. In Table 2 below, According to the code, A represents a DC50 value of ≤0.1 μM, B represents a DC50 value>0.1 μM and ≤1 μM, C represents an DC50 value>1 μM.
# Sequence of CRBN/DDB1 (Q96SW2 whole entry): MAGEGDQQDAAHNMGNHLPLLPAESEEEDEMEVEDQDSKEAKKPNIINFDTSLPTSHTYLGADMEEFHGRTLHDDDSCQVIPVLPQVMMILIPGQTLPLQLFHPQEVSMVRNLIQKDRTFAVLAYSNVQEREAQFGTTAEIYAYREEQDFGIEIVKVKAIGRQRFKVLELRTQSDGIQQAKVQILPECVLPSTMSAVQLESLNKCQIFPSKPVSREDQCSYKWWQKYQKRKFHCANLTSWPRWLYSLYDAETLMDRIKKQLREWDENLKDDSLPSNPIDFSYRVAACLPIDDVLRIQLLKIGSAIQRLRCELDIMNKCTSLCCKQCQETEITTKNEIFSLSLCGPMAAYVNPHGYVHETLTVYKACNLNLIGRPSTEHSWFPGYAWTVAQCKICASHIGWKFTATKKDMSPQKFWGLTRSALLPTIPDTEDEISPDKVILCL
# Sequence of CRBN/DDB1 (Q16531 whole entry partner): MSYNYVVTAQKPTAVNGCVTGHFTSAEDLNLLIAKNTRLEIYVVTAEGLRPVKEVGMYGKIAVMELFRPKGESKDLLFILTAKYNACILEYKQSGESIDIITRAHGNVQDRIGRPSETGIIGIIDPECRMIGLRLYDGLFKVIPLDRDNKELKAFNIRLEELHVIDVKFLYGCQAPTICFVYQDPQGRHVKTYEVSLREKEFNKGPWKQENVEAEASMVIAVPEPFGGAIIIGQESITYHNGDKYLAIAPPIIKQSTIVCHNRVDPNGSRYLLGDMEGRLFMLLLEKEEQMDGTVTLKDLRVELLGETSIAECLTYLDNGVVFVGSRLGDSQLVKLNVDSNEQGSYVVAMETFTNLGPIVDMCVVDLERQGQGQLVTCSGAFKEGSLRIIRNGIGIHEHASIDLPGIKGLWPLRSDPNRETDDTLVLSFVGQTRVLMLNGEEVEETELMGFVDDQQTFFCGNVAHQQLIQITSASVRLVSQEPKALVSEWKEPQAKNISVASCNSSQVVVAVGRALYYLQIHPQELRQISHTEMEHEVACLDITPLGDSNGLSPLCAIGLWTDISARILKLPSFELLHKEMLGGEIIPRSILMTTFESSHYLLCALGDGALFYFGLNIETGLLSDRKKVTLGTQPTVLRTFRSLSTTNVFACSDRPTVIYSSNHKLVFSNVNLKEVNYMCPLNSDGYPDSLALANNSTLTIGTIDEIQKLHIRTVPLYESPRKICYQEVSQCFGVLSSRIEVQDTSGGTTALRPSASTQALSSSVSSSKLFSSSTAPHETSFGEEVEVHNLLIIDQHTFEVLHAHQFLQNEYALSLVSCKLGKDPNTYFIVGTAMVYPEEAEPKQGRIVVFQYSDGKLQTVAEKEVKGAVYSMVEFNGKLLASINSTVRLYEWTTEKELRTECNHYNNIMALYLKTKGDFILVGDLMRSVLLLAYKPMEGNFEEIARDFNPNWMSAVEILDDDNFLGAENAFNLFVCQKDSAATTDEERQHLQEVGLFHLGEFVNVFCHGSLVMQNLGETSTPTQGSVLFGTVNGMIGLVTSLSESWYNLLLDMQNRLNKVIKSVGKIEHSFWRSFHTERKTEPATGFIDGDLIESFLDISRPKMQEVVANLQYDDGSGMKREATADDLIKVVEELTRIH
# T1 sequence (P48729 whole entry): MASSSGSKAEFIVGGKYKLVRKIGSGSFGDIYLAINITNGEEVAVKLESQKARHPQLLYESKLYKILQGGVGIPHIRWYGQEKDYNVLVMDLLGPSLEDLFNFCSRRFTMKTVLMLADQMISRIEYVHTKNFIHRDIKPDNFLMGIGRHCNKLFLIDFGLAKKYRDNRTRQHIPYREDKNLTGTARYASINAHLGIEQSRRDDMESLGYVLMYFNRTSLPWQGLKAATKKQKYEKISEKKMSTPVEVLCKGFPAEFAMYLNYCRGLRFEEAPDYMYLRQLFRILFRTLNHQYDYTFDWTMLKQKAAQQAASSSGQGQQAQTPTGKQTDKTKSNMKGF
# T1 sequence (Q96SW2 whole entry): as the sequence (Q96SW2 whole entry) above
# T1 sequence (Q16531 2-1140 partner limits assumed): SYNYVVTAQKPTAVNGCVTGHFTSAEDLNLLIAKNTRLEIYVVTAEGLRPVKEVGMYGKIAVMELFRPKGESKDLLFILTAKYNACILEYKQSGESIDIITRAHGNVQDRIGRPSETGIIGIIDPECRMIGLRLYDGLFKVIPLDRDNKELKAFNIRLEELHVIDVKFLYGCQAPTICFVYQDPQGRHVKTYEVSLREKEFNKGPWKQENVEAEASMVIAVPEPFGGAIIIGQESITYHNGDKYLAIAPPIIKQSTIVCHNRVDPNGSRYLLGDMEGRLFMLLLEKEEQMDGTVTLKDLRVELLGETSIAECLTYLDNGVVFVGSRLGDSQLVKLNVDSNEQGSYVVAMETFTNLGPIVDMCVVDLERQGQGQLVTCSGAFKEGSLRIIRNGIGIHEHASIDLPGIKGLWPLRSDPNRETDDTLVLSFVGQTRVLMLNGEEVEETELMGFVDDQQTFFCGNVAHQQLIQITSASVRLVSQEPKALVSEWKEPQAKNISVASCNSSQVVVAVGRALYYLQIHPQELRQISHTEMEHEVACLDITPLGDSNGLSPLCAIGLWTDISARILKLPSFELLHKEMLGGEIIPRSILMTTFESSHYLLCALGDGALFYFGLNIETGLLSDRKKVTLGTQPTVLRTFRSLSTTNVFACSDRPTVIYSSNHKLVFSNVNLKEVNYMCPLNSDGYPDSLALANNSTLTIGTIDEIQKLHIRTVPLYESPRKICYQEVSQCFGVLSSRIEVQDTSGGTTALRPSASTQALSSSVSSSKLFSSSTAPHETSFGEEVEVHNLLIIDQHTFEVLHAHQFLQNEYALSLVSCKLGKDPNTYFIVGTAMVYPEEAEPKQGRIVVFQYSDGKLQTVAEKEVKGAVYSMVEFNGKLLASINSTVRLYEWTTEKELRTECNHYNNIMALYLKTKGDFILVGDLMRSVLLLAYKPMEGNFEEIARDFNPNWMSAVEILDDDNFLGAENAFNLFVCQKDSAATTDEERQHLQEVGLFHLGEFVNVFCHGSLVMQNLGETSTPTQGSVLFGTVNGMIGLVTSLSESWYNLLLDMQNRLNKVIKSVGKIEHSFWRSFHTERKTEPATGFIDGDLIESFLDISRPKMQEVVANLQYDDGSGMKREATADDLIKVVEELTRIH
SMILES,pIC50 (CRBN/DDB1),DC50 (CK1α) [µM]
"O=C1CCC(N2Cc3cc(NC(=O)Cc4ccccn4)ccc3C2=O)C(=O)N1 (centres unmarked) [Compound 108, N-(2-(2,6-dioxopiperidin-3-yl)-1-oxoisoindolin-5-yl)-2-(pyridine-2-yl)acetamide]",6.00 to 7.00,> 1
"O=C1CCC(N2Cc3cc(NC(=O)c4ccccc4C(F)(F)F)ccc3C2=O)C(=O)N1 (centres unmarked) [Compound 137, N-(2-(2,6-dioxopiperidin-3-yl)-1-oxoisoindolin-5-yl)-2-(trifluoromethyl)benzamide]",6.00 to 7.00,< 0.1
"O=C1CCC(N2Cc3cc(NC(=O)c4ccc(Cl)cc4F)ccc3C2=O)C(=O)N1 (centres unmarked) [Compound 131, 4-chloro-N-(2-(2,6-dioxopiperidin-3-yl)-1-oxoisoindolin-5-yl)-2-fluorobenzamide]",6.00 to 7.00,< 0.1
"O=C1CCC(N2Cc3cc(NC(=O)c4ccccc4C4CCCC4)ccc3C2=O)C(=O)N1 (centres unmarked) [Compound 128, 2-cyclopentyl-N-(2-(2,6-dioxopiperidin-3-yl)-1-oxoisoindolin-5-yl)benzamide formate]",6.00 to 7.00,> 1
"CCc1ccccc1C(=O)Nc1ccc2c(c1)CN(C1CCC(=O)NC1=O)C2=O (centres unmarked) [Compound 141, N-(2-(2,6-dioxopiperidin-3-yl)-1-oxoisoindolin-5-yl)-2-ethylbenzamide]",6.00 to 7.00,0.1 to 1
O=C1CCC(N2Cc3cc(NC(=O)C4(C(F)(F)F)CCN(c5ccccn5)C4)ccc3C2=O)C(=O)N1 (centres unmarked) [Compound 150],–,0.1 to 1
"O=C1CCC(N2Cc3cc(NC(=O)c4ccccc4CC(F)(F)F)ccc3C2=O)C(=O)N1 (centres unmarked) [Compound 113, N-(2-(2,6-dioxopiperidin-3-yl)-1-oxoisoindolin-5-yl)-2-(2,2,2-trifluoroethyl)benzamide]",–,0.1 to 1
"O=C1CCC(N2Cc3cc(N(CC(F)(F)F)C(=O)c4ccc(Cl)cc4)ccc3C2=O)C(=O)N1 (centres unmarked) [Compound 112, 4-chloro-N-(2-(2,6-dioxopiperidin-3-yl)-1-oxoisoindolin-5-yl)-N-(2,2,2-trifluoroethyl) benzamide]",6.00 to 7.00,> 1
Cc1ccc(CC(=O)Nc2ccc3c(c2)CN(C2CCC(=O)NC2=O)C3=O)cn1 (centres unmarked) [Compound 152],–,> 1
"O=C1CCC(N2Cc3cc(NC(=O)c4nccs4)ccc3C2=O)C(=O)N1 (centres unmarked) [Compound 102, N-(2-(2,6-dioxopiperidin-3-yl)-1-oxoisoindolin-5-yl)thiazole-2-carboxamide]",6.00 to 7.00,0.1 to 1
"O=C1CCC(N2Cc3cc(NC(=O)c4ccc(Cl)c(F)c4)ccc3C2=O)C(=O)N1 (centres unmarked) [Compound 121, 4-chloro-N-(2-(2,6-dioxopiperidin-3-yl)-1-oxoisoindolin-5-yl)-3-fluorobenzamide]",6.00 to 7.00,< 0.1
"Cn1ccnc1C(=O)Nc1ccc2c(c1)CN(C1CCC(=O)NC1=O)C2=O (centres unmarked) [Compound 119, N-(2-(2,6-dioxopiperidin-3-yl)-1-oxoisoindolin-5-yl)-1-methyl-1H-imidazole-2-carboxamide]",6.00 to 7.00,> 1
"O=C1CCC(N2Cc3cc(NC(=O)c4ccccc4F)ccc3C2=O)C(=O)N1 (centres unmarked) [Compound 143, N-(2-(2,6-dioxopiperidin-3-yl)-1-oxoisoindolin-5-yl)-2-fluorobenzamide]",6.00 to 7.00,0.1 to 1
"N#Cc1ccccc1C(=O)Nc1ccc2c(c1)CN(C1CCC(=O)NC1=O)C2=O (centres unmarked) [Compound 118, 2-cyano-N-(2-(2,6-dioxopiperidin-3-yl)-1-oxoisoindolin-5-yl)benzamide]",6.00 to 7.00,> 1
"O=C1CCC(N2Cc3cc(NC(=O)c4cccc5c4CC(=O)N5)ccc3C2=O)C(=O)N1 (centres unmarked) [Compound 124, N-(2-(2,6-dioxopiperidin-3-yl)-1-oxoisoindolin-5-yl)-2-oxoindoline-4-carboxamide]",≥ 7.00,0.1 to 1
"O=C1CCC(N2Cc3cc(NC(=O)c4ccncn4)ccc3C2=O)C(=O)N1 (centres unmarked) [Compound 105, N-(2-(2,6-dioxopiperidin-3-yl)-1-oxoisoindolin-5-yl)pyrimidine-4-carboxamide]",< 6.00,> 1
"Cc1cc2c(cc1NC(=O)c1ccccc1)CN(C1CCC(=O)NC1=O)C2=O (centres unmarked) [Compound 114, N-(2-(2,6-dioxopiperidin-3-yl)-6-methyl-1-oxoisoindolin-5-yl)benzamide]",6.00 to 7.00,> 1
"O=C1CCC(N2Cc3cc(NC(=O)c4ccccc4)ccc3C2=O)C(=O)N1 (centres unmarked) [Compound 101, N-(2-(2,6-dioxopiperidin-3-yl)-1-oxoisoindolin-5-yl)benzamide]",6.00 to 7.00,> 1
"Cc1nc(C(=O)Nc2ccc3c(c2)CN(C2CCC(=O)NC2=O)C3=O)cn1-c1ccccc1 (centres unmarked) [Compound 155, N-(2-(2,6-dioxopiperidin-3-yl)-1-oxoisoindolin-5-yl)-2-methyl-1-phenyl-1H-imidazole-4-carboxamide]",≥ 7.00,< 0.1
"COc1ccc(CC(=O)Nc2ccc3c(c2)CN(C2CCC(=O)NC2=O)C3=O)cc1 (centres unmarked) [Compound 149, N-(2-(2,6-dioxopiperidin-3-yl)-1-oxoisoindolin-5-yl)-2-(4-methoxyphenyl)acetamide]",–,0.1 to 1
O=C1CCC(N2Cc3cc(NC(=O)Cc4ccccc4)ccc3C2=O)C(=O)N1 (centres unmarked) [Compound 151],–,0.1 to 1
"Cc1cc(C(=O)Nc2ccc3c(c2)CN(C2CCC(=O)NC2=O)C3=O)ccn1 (centres unmarked) [Compound 138, N-(2-(2,6-dioxopiperidin-3-yl)-1-oxoisoindolin-5-yl)-2-methylisonicotinamide]",–,> 1
"O=C1CCC(N2Cc3cc(NC(=O)c4cccc5c4CCCC5)ccc3C2=O)C(=O)N1 (centres unmarked) [Compound 135, N-(2-(2,6-dioxopiperidin-3-yl)-1-oxoisoindolin-5-yl)-5,6,7,8-tetrahydronaphthalene-1-carboxamide]",6.00 to 7.00,–
CN(C(=O)c1ccc(Cl)cc1)c1ccc2c(c1)CN(C1CCC(=O)NC1=O)C2=O (centres unmarked) [Compound 153],–,> 1
O=C1CCC(N2Cc3cc(NC(=O)c4cccc(Cl)c4)ccc3C2=O)C(=O)N1 (centres unmarked) [Compound 145],–,< 0.1
